From PMC6272185 (Molecules, 2015)
Values after ≈ are worked out from the molar mass of the structure shown. Like-named read-outs stand apart in the source and are kept apart here.

Columns and labels:
[1] = system: NO production by LPS-stimulated RAW 264.7 macrophages; assay: Inhibition of NO production by LPS-stimulated macrophages (Griess); assay type: cell-based, murine; details: mean ± SD, n = 3
[2] = system: TNF-α production by LPS-stimulated RAW 264.7 macrophages; assay: Inhibition of TNF-α production by LPS-stimulated macrophages (ELISA); assay type: cell-based, murine; details: for IC50: Mus musculus, RAW264.7, LPS (1 µg/mL)-stimulated RAW 264.7, 24 h, mean ± SD, n = 3, read-out: IC50 TNF-α
[3] = Macrophage cytotoxicity, LDH release assay; assay type: cell-based, murine; details: mouse, RAW 264.7 macrophages stimulated with LPS; LPS-stimulated RAW 264.7, LDH release; mean ± SD, n = 3
Procedure: Cytotoxic effects of chalcone samples on RAW 264.7 cell viability in cultures stimulated with LPS were determined using the LDH (lactate dehydrogenase) release assay as previously described [58]. Cytoplasmic enzyme LDH release into cell culture supernatants was detected using a commercial LDH kit (Doles, GO, Brazil). Cell death was expressed as percentage of LDH release, which was calculated using the following formula: percentage of LDH release = 100 × (test LDH release − spontaneous release)/(maximum release − spontaneous release). The maximum release was determined following dissolution of cell monolayers using 1% (vol/vol) Triton X-100. The spontaneous release was determined in supernatants from cultures incubated in the presence of LPS and DMSO, used as a solvent for chalcone samples.

M. bovis BCG = assay: microbe, parasite or virus in culture; assay type: cell-based, Mycobacterium bovis BCG; details: Mycobacterium tuberculosis variant bovis BCG, BCG, 168 h; for MIC50: read-out: MIC50 M. bovis BCG; for MIC90: read-out: MIC90 M. bovis BCG
[4] = system: IL-1β production by LPS-stimulated RAW 264.7 macrophages; assay: Inhibition of IL-1β production by LPS-stimulated macrophages (ELISA); assay type: cell-based, murine; details: for IC50: Mus musculus, RAW264.7, 24 h, read-out: IC50 IL-1β
Procedure: (§1) Murine RAW 264.7 macrophage cell line (American Type Culture Collection, Manassas, VA, USA), was cultured in Dulbecco’s modified Eagle’s medium (DMEM-F12) supplemented with 10% Fetal Bovine Serum (FBS) and gentamicin (50 µg/mL) in 5% CO2 atmosphere at 37 °C. For experiments, the cells were seeded in 96-well plates (1 × 10^5 cells/well) and incubated for 24 h at 37 °C. For macrophage stimulation, the cell cultures were treated with LPS (1 µg/mL) and incubated for additional 24 h in the presence or absence of the chalcone samples (samples 1–41) that were used at concentrations of 100, 20, 4 and 0.8 µg/mL. In some experiments, a nitric oxide (NO) inhibitor, L-NMMA (20 μg/mL), was used as a positive control of NO inhibition, and a non-steroidal anti-inflammatory drug indomethacin, known to inhibit production of prostaglandins, was used as a positive control of PGE2 inhibition.
(§2) The frozen culture supernatants samples were thawed and immediately analyzed using commercially available enzyme-linked immunosorbent assay (ELISA) kits to measure TNF-α, IL-1β (BD Biosciences) and PGE2 (R&D Systems, Minneapolis, MN, USA), according to the manufacturer’s instructions. Standard curves for each mediator were generated using reference cytokine concentrations supplied by the manufacturer. Nitric oxide (NO) generation was assessed by the Griess method to measure nitrites, which are stable breakdown NO products.

[5] = system: PGE2 production by LPS-stimulated RAW 264.7 macrophages; assay: Inhibition of PGE2 production by LPS-stimulated macrophages (ELISA); assay type: cell-based, murine; details: for IC50: Mus musculus, RAW264.7, 24 h, read-out: IC50 PGE2; for prostaglandin (PGE2) value: only LPS-treated cells 436.0 ± 5.8 pg/mL
Procedure: as §1, §2

M. tuberculosis H37Rv = assay: microbe, parasite or virus in culture; assay type: cell-based, Mycobacterium tuberculosis; details: Mycobacterium tuberculosis
M. tuberculosis M299 = assay: microbe, parasite or virus in culture; assay type: cell-based, Mycobacterium tuberculosis; details: Mycobacterium tuberculosis, M299, 120 h
[6] = Mus musculus, RAW264.7, 24 h, LPS (1 µg/mL)-stimulated RAW 264.7, 24 h, read-out: IC50 NO
[7] = H37RV, 120 h, read-out: MIC50 M. tuberculosis H37Rv
[8] = Table 5, same values as M. tuberculosis H37Rv in Table 3, read-out: MIC50

SMILES | IC50 [1, 6] [µM] | IC50 [2] [µM] | IC50 [3] [µM] | MIC50 (M. bovis BCG) [µM] | MIC90 (M. bovis BCG) [µM] | IC50 [4] [µM] | IC50 [5] [µM] | also measured
O=C(/C=C/c1ccc2c(c1)OCO2)c1ccccc1Cl [Chalcone 35] | 160 ± 4.7 | > 349 | > 349 | > 349 | > 349 | – | – | –
Cc1ccc(C(=O)/C=C/c2ccc3c(c2)OCO3)cc1 [Chalcone 20] | 30.1 ± 1.2 | > 376 | > 376 | > 376 | > 376 | > 376 | 147.4 ± 1.2 | –
O=C(/C=C/c1ccc([N+](=O)[O-])cc1)c1ccc(Br)cc1 [Chalcone 38] | > 301 | > 301 | > 301 | 97.4 ± 4.2 (≈ 32.4 µg/mL) | 221 ± 5.6 (≈ 73.3 µg/mL) | – | – | –
O=C(/C=C/c1ccc([N+](=O)[O-])cc1)c1ccccc1Cl [Chalcone 41] | – | 68.5 ± 3.3 | > 348 | 30.5 ± 4.7 (≈ 8.77 µg/mL) | 247 ± 7.2 (≈ 71 µg/mL) | 13.5 ± 3.9 | 67.4 ± 2.2 | IC50 ([1]; LPS (1 µg/mL)-stimulated RAW 264.7, 24 h, read-out: IC50 NO): 11.2 ± 5 µM; IC50 ([1]; Mus musculus, RAW264.7, 24 h, read-out: IC50 NO, LPS (1 µg/mL)-stimulated RAW 264.7, 24 h): < 21 µM; inhibition of TNF-α ([2]; LPS-stimulated RAW 264.7): strongly inhibit; inhibition of IL-1β ([4]; LPS-stimulated RAW 264.7): potent inhibitors; MIC90 (M. tuberculosis H37Rv; H37RV, 120 h): 275 ± 6.7 µM (≈ 79.2 µg/mL); MIC50 (M. tuberculosis H37Rv; [7]): 82.1 ± 4.3 µM (≈ 23.6 µg/mL); MIC50 (M. tuberculosis H37Rv; [8]): 82.1 ± 4.3 µM (≈ 23.6 µg/mL)
Cc1ccc(C(=O)/C=C/c2ccc(Cl)cc2)cc1 [Chalcone 18] | 150 ± 3.8 | > 390 | 304 ± 4.2 | 71.3 ± 4.8 (≈ 18.3 µg/mL) | 323 ± 7.1 (≈ 83 µg/mL) | – | – | –
COc1ccc(/C=C/C(=O)c2ccc(Br)cc2)cc1OC [Chalcone 14] | 58.9 ± 6.8 | > 288 | > 288 | > 288 | > 288 | – | – | –
COc1ccc2c(c1)c(CC(=O)O)c(C)n2C(=O)c1ccc(Cl)cc1 [indomethacin, reference compound] | – | – | – | – | – | – | – | prostaglandin (PGE2) value ([5]; 0.0004 µg/mL): 340.7 ± 1.1 pg/mL; prostaglandin (PGE2) value ([5]; 0.004 µg/mL): 271.6 ± 2.6 pg/mL; prostaglandin (PGE2) value ([5]; 0.04 µg/mL): 171.8 ± 1.2 pg/mL; prostaglandin (PGE2) value ([5]; 0.2 µg/mL): 11.8 ± 1.9 pg/mL
O=C(/C=C/c1ccc([N+](=O)[O-])cc1)c1ccccc1 [Chalcone 37] | 58.6 ± 4.5 | > 395 | > 395 | > 395 | > 395 | > 395 | 322 ± 3.7 | –
COc1ccc(/C=C/C(=O)c2ccccc2Cl)cc1 [Chalcone 34] | > 367 | > 367 | > 367 | > 367 | > 367 | – | – | –
Cc1ccc(C(=O)/C=C/c2ccccc2Cl)cc1 [Chalcone 23] | > 390 | > 390 | > 390 | > 390 | > 390 | – | – | –
COc1ccc(/C=C/C(=O)c2ccc(C)cc2)cc1 [Chalcone 21] | 30.6 ± 4.7 | > 396 | > 396 | 33.3 ± 5.4 (≈ 8.4 µg/mL) | 362 ± 5.9 (≈ 91.4 µg/mL) | > 396 | 50.1 ± 1 | MIC90 (M. tuberculosis H37Rv; H37RV, 120 h): 368 ± 5.2 µM (≈ 92.9 µg/mL); MIC50 (M. tuberculosis H37Rv; [7]): 66.9 ± 6.2 µM (≈ 16.9 µg/mL); MIC50 (M. tuberculosis H37Rv; [8]): 66.9 ± 6.2 µM (≈ 16.9 µg/mL)
COc1ccc(C(=O)/C=C/c2ccc(Cl)cc2)cc1 [Chalcone 26] | 25.3 ± 3.9 | > 367 | > 367 | 91.2 ± 5 (≈ 24.9 µg/mL) | 287 ± 7.8 (≈ 78.2 µg/mL) | > 367 | 57.7 ± 1.9 | –
COc1ccc(C(=O)/C=C/c2ccc(N(C)C)cc2)cc1 [Chalcone 27] | 44.6 ± 5.2 | > 355 | 226 ± 3.5 | 309 ± 5 (≈ 86.9 µg/mL) | > 355 | – | – | –
CO[C@H]1/C=C/O[C@@]2(C)Oc3c(C)c(O)c4c(O)c(c(/C=N/N5CCN(C)CC5)c(O)c4c3C2=O)NC(=O)/C(C)=C\C=C\[C@H](C)[C@H](O)[C@@H](C)[C@@H](O)[C@@H](C)[C@H](OC(C)=O)[C@@H]1C [Rifampicin, rifampicin, reference compound] | – | – | – | 0.01 ± 0.03 (≈ 0.00823 µg/mL) | 0.2 ± 0.01 (≈ 0.165 µg/mL) | – | – | MIC90 (M. tuberculosis H37Rv; H37RV, 120 h): 0.15 ± 0.08 µM (≈ 0.123 µg/mL); MIC50 (M. tuberculosis H37Rv; [7]): 0.11 ± 0.02 µM (≈ 0.0905 µg/mL); MIC50 (M. tuberculosis M299): 0.2 ± 0.18 µM (≈ 0.165 µg/mL); MIC90 (M. tuberculosis M299): 3.3 ± 0.16 µM (≈ 2.72 µg/mL)
